Laboratory results taken from ChEMBL document CHEMBL4699396, “Macrocyclic peptidomimetics as inhibitors of insulin-regulated aminopeptidase (IRAP)” (RSC Med Chem, 2020).

Test system: Insulin-regulated aminopeptidase (Homo sapiens)
Assay: Binding affinity to recombinant full length human IRAP expressed in HEK293T cells assessed as binding free energy

Work on N[C@H]1CC/C=C\CC[C@@H](C(=O)NCc2ccccc2CC(=O)O)NC(=O)C[C@H](Cc2ccc(O)cc2)NC1=O yielded a deltaG of -44.6 kJ/mol.

Work on N[C@H]1CC/C=C/CC[C@@H](C(=O)NCc2ccccc2CC(=O)O)NC(=O)C[C@H](Cc2ccc(O)cc2)NC1=O yielded a deltaG of -51.9 kJ/mol.
